According to PMC9069370, “Integrated Design of a Membrane‐Lytic Peptide‐Based Intravenous Nanotherapeutic Suppresses Triple‐Negative Breast Cancer” (Advanced Science, 2022):
Peptide text beside a SMILES is read from it.

Columns and labels:
[1] = ANTS/DPX liposome leakage assay; details: for Peptide Concentration-induced 50 % ANTS/DPX leakage at pH 4.8 (L/P), 3POPC/1POPG Vesicle / Peptide Concentration-induced 50 % ANTS/DPX leakage at pH 4.8 (L/P), POPC Vesicle / Peptide Concentration-induced 50 % ANTS/DPX leakage at pH 7.4 (L/P), 3POPC/1POPG Vesicle / Peptide Concentration-induced 50 % ANTS/DPX leakage at pH 7.4 (L/P), POPC Vesicle: 0.5 mM vesicles, peptide 0-20 µM, 3 h incubation, lipid per peptide; for Peptide Concentration-induced 50 % ANTS/DPX leakage at pH 4.8 (L/P), 3POPC/1POPG Vesicle / Peptide Concentration-induced 50 % ANTS/DPX leakage at pH 4.8 (L/P), POPC Vesicle: HCl-adjusted PBS 1X pH 4.8; for Peptide Concentration-induced 50 % ANTS/DPX leakage at pH 7.4 (L/P), 3POPC/1POPG Vesicle / Peptide Concentration-induced 50 % ANTS/DPX leakage at pH 7.4 (L/P), POPC Vesicle: PBS 1X pH 7.4, high ratio = more potent
In short: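 The value is the lipid-to-peptide ratio giving 50% ANTS/DPX release, with fluorescence (350/510 nm) read after 3 h and scaled to 10% Triton as full leakage. Peptides were titrated into 0.5 mM LUVs of POPC or 3POPC/1POPG (0.1 µm, free dye removed by gel filtration) in PBS at pH 7.4 or 4.8.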

[2] = system: HMLER‐shEcad tumorspheres; test: cells; type: cell-based, human; details: 16 h
HEK293T = test: cells; type: cell-based, human; details: 72 h
[3] = Tryptophan fluorescent binding assay; details: tryptophan fluorescence; 50 µM peptide, lipid titrated 0-5000 µM; phosphate buffered saline 1X, pH 7.4; values as lipid per peptide
In short: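 Peptides at 50 µM were incubated for 1 h with increasing amounts of 3:1 POPC:POPG unilamellar vesicles in 1X phosphate buffered saline, pH 7.4. Tryptophan emission (300–450 nm, excitation 280 nm) was recorded on a Cytation 5 multi-mode reader. The lipid concentration giving 50 % peptide binding was determined and reported as a lipid-to-peptide ratio.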

HMLER‐shEcad = test: cells; type: cell-based, human; details: 72 h
From the text: (§1) […], and MCF-10A cells were maintained in MEGM with supplements and growth factors bovine pituitary extract, hydrocortisone, human epidermal growth factor, insulin, and gentamicin/amphotericin-B.

U2OS = type: cell-based, human; details: 72 h
HMLER = test: cells; type: cell-based, human; details: 72 h
From the text: as §1

MCF‐10A = test: cells; type: cell-based, human; details: 72 h
From the text: as §1

| SMILES | Peptide Concentration-induced 50 % ANTS/DPX leakage at pH 4.8 (L/P), 3POPC/1POPG Vesicle [1] | Peptide Concentration-induced 50 % ANTS/DPX leakage at pH 4.8 (L/P), POPC Vesicle [1] | Peptide Concentration-induced 50 % ANTS/DPX leakage at pH 7.4 (L/P), 3POPC/1POPG Vesicle [1] | Peptide Concentration-induced 50 % ANTS/DPX leakage at pH 7.4 (L/P), POPC Vesicle [1] | change of ANTS/DPX dye leakage / liposome selectivity at pH 4.8 ([1]; pH = 4.8 compared with physiological pH, anionic versus neutral liposomes) | IC50 [2] | IC90 [2] | IC50 (HEK293T) | Lipid Concentration-induced 50% Peptide Binding (L/P), 3POPC/1POPG Vesicle [3] | Lipid Concentration-induced 50% Peptide Binding (L/P), POPC Vesicle [3] | IC50 (HMLER‐shEcad) | IC50 (U2OS) | IC50 (HMLER) | IC50 (MCF‐10A) |
| --- | --- | --- | --- | --- | --- | --- | --- | --- | --- | --- | --- | --- | --- | --- |
| CC(C)C[C@H](NC(=O)CN)C(=O)N[C@@H](CC(C)C)C(=O)N[C@@H](CC(=O)O)C(=O)N[C@@H](CC(C)C)C(=O)N[C@@H](CC(C)C)C(=O)N[C@@H](CCC(=O)O)C(=O)N[C@@H](CC(C)C)C(=O)N[C@@H](CC(C)C)C(=O)N[C@@H](CC(C)C)C(=O)N[C@@H](CCCCN)C(=O)N[C@@H](C)C(=O)N[C@@H](C)C(=O)NCC(=O)N[C@@H](Cc1c[nH]c2ccccc12)C(N)=O [DEK] (H-GLLDLLELLLKAAGW-NH2) | 469 L/P | 10 L/P | 773 L/P | 747 L/P | significantly increased dye leakage from anionic liposomes | 12 ± 2 µM | 22 ± 2 µM | 6.8 ± 0.85 µM | 1.67 L/P | 1.50 L/P | 0.7 ± 0.07 µM | 19.9 ± 2.65 µM | – | – |
| CC(C)C[C@H](NC(=O)CN)C(=O)N[C@@H](CC(C)C)C(=O)N[C@@H](Cc1c[nH]cn1)C(=O)N[C@@H](CC(C)C)C(=O)N[C@@H](CC(C)C)C(=O)N[C@@H](Cc1c[nH]cn1)C(=O)N[C@@H](CC(C)C)C(=O)N[C@@H](CC(C)C)C(=O)N[C@@H](CC(C)C)C(=O)N[C@@H](CCCCN)C(=O)N[C@@H](C)C(=O)N[C@@H](C)C(=O)NCC(=O)N[C@@H](Cc1c[nH]c2ccccc12)C(N)=O [HHK] (H-GLLHLLHLLLKAAGW-NH2) | 111 L/P | 149 L/P | 160 L/P | 1133 L/P | – | – | – | 5.25 ± 1.48 µM | 0.20 L/P | 0.68 L/P | 1.75 ± 0.21 µM | 12.7 ± 1.91 µM | 3.15 ± 0.07 µM | 5.6 ± 0.14 µM |
| CC(C)C[C@H](NC(=O)CN)C(=O)N[C@@H](CC(C)C)C(=O)N[C@@H](CCC(=O)O)C(=O)N[C@@H](CC(C)C)C(=O)N[C@@H](CC(C)C)C(=O)N[C@@H](CCCCN)C(=O)N[C@@H](CC(C)C)C(=O)N[C@@H](CC(C)C)C(=O)N[C@@H](CC(C)C)C(=O)N[C@@H](CCC(=O)O)C(=O)N[C@@H](C)C(=O)N[C@@H](C)C(=O)NCC(=O)N[C@@H](Cc1c[nH]c2ccccc12)C(N)=O [EKE] (H-GLLELLKLLLEAAGW-NH2) | 438 L/P | 75 L/P | 657 L/P | 738 L/P | – | – | – | 5.15 ± 0.21 µM | 1.63 L/P | 2.75 L/P | 1.3 ± 0.14 µM | 8 ± 0.71 µM | 1.8 ± 0.28 µM | 8.8 µM |
| CC(C)C[C@H](NC(=O)CN)C(=O)N[C@@H](CC(C)C)C(=O)N[C@@H](Cc1c[nH]cn1)C(=O)N[C@@H](CC(C)C)C(=O)N[C@@H](CC(C)C)C(=O)N[C@@H](Cc1c[nH]cn1)C(=O)N[C@@H](CC(C)C)C(=O)N[C@@H](CC(C)C)C(=O)N[C@@H](CC(C)C)C(=O)N[C@@H](Cc1c[nH]cn1)C(=O)N[C@@H](C)C(=O)N[C@@H](C)C(=O)NCC(=O)N[C@@H](Cc1c[nH]c2ccccc12)C(N)=O [HHH] (H-GLLHLLHLLLHAAGW-NH2) | 50 L/P | 173 L/P | 469 L/P | 1133 L/P | – | – | – | 30.6 ± 4.81 µM | 0.82 L/P | 0.46 L/P | 9.5 ± 0.99 µM | 185 ± 7 µM | 21.1 ± 6.93 µM | 79 ± 11.3 µM |
| CC(C)C[C@H](NC(=O)CN)C(=O)N[C@@H](CC(C)C)C(=O)N[C@@H](CC(=O)O)C(=O)N[C@@H](CC(C)C)C(=O)N[C@@H](CC(C)C)C(=O)N[C@@H](CCC(=O)O)C(=O)N[C@@H](CC(C)C)C(=O)N[C@@H](CC(C)C)C(=O)N[C@@H](CC(C)C)C(=O)N[C@@H](CCC(=O)O)C(=O)N[C@@H](C)C(=O)N[C@@H](C)C(=O)NCC(=O)N[C@@H](Cc1c[nH]c2ccccc12)C(N)=O [DEE] (H-GLLDLLELLLEAAGW-NH2) | 164 L/P | 110 L/P | 597 L/P | 644 L/P | – | – | – | 9.91 ± 0.44 µM | 0.38 L/P | 0.63 L/P | 6.05 ± 2.76 µM | 61 ± 1.41 µM | 5.55 ± 0.35 µM | 8.4 ± 1.56 µM |
| CC(C)C[C@H](NC(=O)CN)C(=O)N[C@@H](CC(C)C)C(=O)N[C@@H](Cc1c[nH]cn1)C(=O)N[C@@H](CC(C)C)C(=O)N[C@@H](CC(C)C)C(=O)N[C@@H](CCCCN)C(=O)N[C@@H](CC(C)C)C(=O)N[C@@H](CC(C)C)C(=O)N[C@@H](CC(C)C)C(=O)N[C@@H](CCC(=O)O)C(=O)N[C@@H](C)C(=O)N[C@@H](C)C(=O)NCC(=O)N[C@@H](Cc1c[nH]c2ccccc12)C(N)=O [HKE] (H-GLLHLLKLLLEAAGW-NH2) | 94 L/P | 173 L/P | 365 L/P | 692 L/P | – | – | – | 5.15 ± 0.64 µM | 0.25 L/P | 0.75 L/P | 1.9 ± 0.42 µM | 16 ± 0.78 µM | 2.7 ± 0.28 µM | 7.6 ± 0.42 µM |
